Reference: patent publication US4273782A, “Inhibition of thromboxane synthetase by 3-(1-Imidazolylalkyl) indoles” (Pfizer Inc., priority 1979, dated 1981)
Counter-ions that a name gives are not always drawn.

Assays:
prostacyclin synthetase [1] = target: T1, prostacyclin synthetase (Sus scrofa, UniProt A0A5G2QT35); conditions: pre-incubation of the enzyme; cited from earlier work
T1 construct: Pig aorta microsomes; from tissue; host or cells: pig aorta (microsomes)
T1 sequence (A0A5G2QT35 1-497): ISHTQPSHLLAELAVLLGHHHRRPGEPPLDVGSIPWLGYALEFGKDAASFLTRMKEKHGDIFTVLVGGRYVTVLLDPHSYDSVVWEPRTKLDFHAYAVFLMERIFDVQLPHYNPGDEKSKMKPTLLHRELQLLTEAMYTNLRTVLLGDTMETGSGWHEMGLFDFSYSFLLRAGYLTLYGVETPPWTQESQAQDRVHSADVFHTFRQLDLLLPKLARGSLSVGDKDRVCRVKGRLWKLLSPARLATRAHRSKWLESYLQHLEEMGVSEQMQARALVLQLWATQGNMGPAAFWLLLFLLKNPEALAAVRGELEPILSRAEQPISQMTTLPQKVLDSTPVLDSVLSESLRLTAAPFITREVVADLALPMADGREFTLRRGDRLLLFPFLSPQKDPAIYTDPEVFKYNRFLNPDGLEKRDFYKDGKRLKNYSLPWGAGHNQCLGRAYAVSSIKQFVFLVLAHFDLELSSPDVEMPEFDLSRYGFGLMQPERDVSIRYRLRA

prostacyclin synthetase [2] = target: T1, prostacyclin synthetase; assay: Prostacyclin (PGI2) synthetase inhibition, pig aorta microsomes, rabbit aorta bioassay; type: biochemical; conditions: test compound pre-incubated with enzyme for 5 minutes, read-out: Molar concentration causing 50% inhibition of prostacyclin synthetase
Method: The effect of the compounds of the formula (I) on the thromboxane synthetase enzyme, and the prostacyclin synthetase and cyclooxygenase enzymes has been measured by the following in vitro enzyme assays:
2. Prostacyclin (PGI2) Synthetase
Pig aorta microsomes (Nature, 1976, 263, 663) are incubated (30 sec.: 22° C.) with PGH2 produced as in 1) and aliquots bio-assayed as in 1. […] The test compound is then pre-incubated with the enzyme for 5 minutes, and its ability to prevent the decrease in tension is measured.
The results of these tests are shown in the following Table, which gives the molar concentration of each compound which caused a 50% change in the effect of the relevant enzyme on isometric tension, i.e. caused a 50% inhibition of the action of that enzyme.

thromboxane synthetase = target: T2, thromboxane synthetase (Homo sapiens, UniProt P24557); assay: Thromboxane A2 (TxA2) synthetase inhibition, human platelet microsomes, rabbit aorta bioassay; type: biochemical; conditions: test compound pre-incubated with enzyme for 5 minutes, read-out: Molar concentration causing 50% inhibition of thromboxane synthetase
T2 construct: human platelet microsomes; from tissue; host or cells: human blood platelets (microsomes, indomethacin pre-treated)
T2 sequence (P24557 1-533): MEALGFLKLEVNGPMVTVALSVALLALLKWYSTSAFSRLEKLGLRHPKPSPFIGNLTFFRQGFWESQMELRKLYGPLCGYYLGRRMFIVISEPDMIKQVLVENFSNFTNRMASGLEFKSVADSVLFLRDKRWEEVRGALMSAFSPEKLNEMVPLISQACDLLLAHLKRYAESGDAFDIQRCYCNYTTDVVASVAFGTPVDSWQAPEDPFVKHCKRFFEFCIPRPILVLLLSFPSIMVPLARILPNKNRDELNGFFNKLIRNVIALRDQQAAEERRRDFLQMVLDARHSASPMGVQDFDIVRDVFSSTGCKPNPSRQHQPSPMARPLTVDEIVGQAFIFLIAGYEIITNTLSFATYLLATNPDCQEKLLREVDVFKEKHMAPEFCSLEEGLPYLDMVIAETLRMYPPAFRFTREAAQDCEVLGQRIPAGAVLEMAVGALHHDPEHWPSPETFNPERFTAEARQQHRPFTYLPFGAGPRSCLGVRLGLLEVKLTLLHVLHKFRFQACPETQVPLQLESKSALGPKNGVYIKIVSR
Method: 3. Thromboxane A2 (TxA2) Synthetase
Indomethacin pre-treated human platelet microsomes (Science, 1976, 193, 163) are incubated (2 min.: 0° C.) with PGH2 (produced as in 1) and aliquots of the reaction mixture superfused over two rabbit aorta spirals which are separated by a delay coil (2 min.). The latter is required to allow the selective decay of the more unstable thromboxane A2 (Proc. Nat. Acad. Sci., 1975, 72, 2994) thereby enabling the separate measurement of increased isometric tension due to the TxA2 formed and the PGH2 remaining. The test compound is pre-incubated with enzyme for 5 minutes, and its ability to inhibit the thromboxane synthetase enzyme is measured as its reduction of the TxA2 component of the isometric tension.

[3] = test system: human blood platelet aggregation; conditions: human blood platelets; cited from earlier work
cyclo-oxygenase enzyme = conditions: cited from earlier work
[4] = rabbit; intravenous arachidonic acid; cited from earlier work
aggregation of platelets = conditions: rat, abdominal aorta; cited from earlier work

For 15-hydroxy-arachidonic acid, which “prevention of the decrease in PGH2-induced tension (selective PGI2 synthetase inhibitor)” value (prostacyclin synthetase [1]) is on record?
Its value is “prevented completely”.

What does the source list for `N#CCCn1cc(Cn2ccnc2)c2ccccc21` [Example 1, 1-(2-Cyanoethyl)-3-(1-imidazolylmethyl)indole fumarate]?
IC50 (prostacyclin synthetase [2]): 24000 nM; IC50 (thromboxane synthetase): 18 nM

What does the source list for `N#Cc1ccc(Cn2cc(Cn3ccnc3)c3ccccc32)cc1` [Example 4, 1-(4-Cyanobenzyl)-3-(1-imidazolylmethyl)indole]?
IC50 (prostacyclin synthetase [2]): 2200 nM; IC50 (thromboxane synthetase): 4.8 nM

Which results are given for `CCOC(=O)c1ccc(Cn2cc(Cn3ccnc3)c3ccccc32)cc1` [Example 7, 1-(4-Ethoxycarbonylbenzyl)-3-(1-imidazolylmethyl)indole hemi-fumarate]?
IC50 (prostacyclin synthetase [2]): > 100000 nM; IC50 (thromboxane synthetase): 0.16 nM

Which results are given for `CCOC(=O)Cn1cc(Cn2ccnc2)c2ccccc21` [Example 10, 1-Ethoxycarbonylmethyl-3-(1-imidazolylmethyl)indole]?
IC50 (prostacyclin synthetase [2]): > 100000 nM; IC50 (thromboxane synthetase): 12 nM

Which IC50 (prostacyclin synthetase [2]) does the source give for `O=C(O)CCn1cc(Cn2ccnc2)c2ccccc21` [Example 11, 1-(2-Carboxyethyl)-3-(1-imidazolylmethyl)indole fumarate monohydrate] here?
The IC50 was greater than 100000 nM.

And the IC50 (thromboxane synthetase)?
Its IC50 is 0.04 nM.

For `CC(C)c1c(Cn2ccnc2)c2ccccc2n1CCC(=O)O` [Example 13], which IC50 (prostacyclin synthetase [2]) is on record?
Its IC50 is 100000 nM.

And the IC50 (thromboxane synthetase)?
Its IC50 is 2 nM.

Which IC50 (prostacyclin synthetase [2]) does the source give for `O=C(O)CCn1c(C2CC2)c(Cn2ccnc2)c2ccccc21` [Example 14, 1-carboxyethyl-2-cyclopropyl-3-(1-imidazolylmethyl)indole] here?
The IC50 was 40000 nM.

And the IC50 (thromboxane synthetase)?
Its IC50 is 0.037 nM.

For `O=C(O)CCn1cc(Cn2ccnc2)c2cc(Br)ccc21` [Example 20, 5-bromo-1-(2-carboxyethyl)-3-(1-imidazolylmethyl)indole], which IC50 (prostacyclin synthetase [2]) is on record?
Its IC50 is greater than 100000 nM.

For `O=C(O)Cn1cc(Cn2ccnc2)c2ccccc21` [Example 23, 1-Carboxymethyl-3-(1-imidazolylmethyl)indole], which IC50 (prostacyclin synthetase [2]) is on record?
The IC50 was greater than 100000 nM.

What about the IC50 (thromboxane synthetase) of the same compound?
The IC50 was 0.8 nM.

Which results are given for `O=C(O)c1ccc(Cn2cc(Cn3ccnc3)c3ccccc32)cc1` [Example 24, 1-(4-Carboxybenzyl)-3-(1-imidazolylmethyl)indole]?
IC50 (prostacyclin synthetase [2]): > 100000 nM; IC50 (thromboxane synthetase): 0.16 nM

For `O=C(O)c1cccc(Cn2cc(Cn3ccnc3)c3ccccc32)c1` [Example 25, 1-(3-Carboxybenzyl)-3-(1-imidazolylmethyl)indole], which IC50 (prostacyclin synthetase [2]) is on record?
Its IC50 is greater than 100000 nM.

What about the IC50 (thromboxane synthetase) of the same compound?
The IC50 was 2.4 nM.

With `NC(=O)Cn1cc(Cn2ccnc2)c2ccccc21` [Example 27, 1-Carbamoylmethyl-3-(1-imidazolylmethyl)indole] as the compound, how does the IC50 (prostacyclin synthetase [2]) read?
The IC50 was 100000 nM.

What about the IC50 (thromboxane synthetase) of the same compound?
Its IC50 is 140 nM.

With `CC(C)c1c(Cn2ccnc2)c2ccccc2n1CCC(N)=O` [Example 28, 1-(2-Carbamoylethyl)-2-isopropyl-3-(1-imidazolylmethyl)indole] as the compound, how does the IC50 (prostacyclin synthetase [2]) read?
Its IC50 is 70000 nM.

And the IC50 (thromboxane synthetase)?
The IC50 was 6 nM.

With `NC(=O)c1ccc(Cn2cc(Cn3ccnc3)c3ccccc32)cc1` [Example 38, 1-(4-Carbamoylbenzyl)-3-(1-imidazolylmethyl)indole] as the compound, how does the IC50 (thromboxane synthetase) read?
The IC50 was 130 nM.

For `c1ccc2c(c1)c(Cn1ccnc1)cn2CCc1nnn[nH]1` [Example 42, 1-[2-(5-Tetrazolyl)ethyl]-3-(1-imidazolylmethyl)indole], which IC50 (prostacyclin synthetase [2]) is on record?
Its IC50 is 45000 nM.

And the IC50 (thromboxane synthetase)?
Its IC50 is 0.034 nM.

With `CNC(=O)NCCCn1cc(Cn2ccnc2)c2ccccc21` [Example 46, N-Methyl-N'-[3-[3-(imidazol-1-ylmethyl)indol-1-yl]propyl]urea] as the compound, how does the IC50 (thromboxane synthetase) read?
Its IC50 is 2.1 nM.

Which IC50 (prostacyclin synthetase [2]) does the source give for `O=C(NCCCn1cc(Cn2ccnc2)c2ccccc21)Nc1ccccc1` [Example 47, N-Phenyl-N'-[3-[3-(imidazol-1-ylmethyl)indol-1-yl]propyl]urea] here?
Its IC50 is 40000 nM.

What about the IC50 (thromboxane synthetase) of the same compound?
Its IC50 is 5.5 nM.

Which IC50 (prostacyclin synthetase [2]) does the source give for `O=S(=O)(NCCCn1cc(Cn2ccnc2)c2ccccc21)c1ccccc1` [Example 48, 1-(3-Benzenesulphonylaminopropyl)-3-(1-imidazolylmethyl)indole] here?
The IC50 was 100000 nM.

What about the IC50 (thromboxane synthetase) of the same compound?
Its IC50 is 1 nM.

Which “inhibitory activity in vitro against a variety of aggregating agents” value [3] does the source give for `CC(=O)Oc1ccccc1C(=O)O` [aspirin] here?
Its value is “show inhibitory activity in vitro”.

And the “effect on prostacyclin and thromboxane A2 levels” value (cyclo-oxygenase enzyme)?
Its value is “reduce both the prostacyclin and thromboxane A2 levels”.

And the “inhibition of the cyclo-oxygenase enzyme” value (cyclo-oxygenase enzyme)?
The value was “inhibit the cyclo-oxygenase enzyme”.

And the “protection from the lethal effect of arachidonic acid injection” value [4]?
The value was “protect the rabbit from the lethal effect of the injection”.

What does the source list for `O=C1C(CC[S+]([O-])c2ccccc2)C(=O)N(c2ccccc2)N1c1ccccc1` (centres unmarked) [sulphinpyrazone]?
prevention of aggregation of platelets in an extra corporeal loop (aggregation of platelets): prevent the aggregation of platelets; inhibitory activity in vitro against a variety of aggregating agents [3]: show inhibitory activity in vitro; protection from the lethal effect of arachidonic acid injection [4]: protect the rabbit from the lethal effect of the injection
